The subject of assay [1] is PSN1 (Human Pancreatic Carcinoma) Cell Line. Put plainly: MTS cytotoxicity of irinotecan and topotecan solutions on PSN1 cells. The format is cell-based. The settings on record: for IC50: read-out: Estimated IC50 conc. The procedure: 20,000 PSN1 cells were seeded in 96 well plates and left to adhere to the well surface overnight. The drug solutions underwent serial dilutions from 1000 μg/ml to 1×10^−8 μg/ml in cell culture media. […] After 24, 48 and 72 hrs, the cells were washed (×3) with PBS and 100 μl media was added. The MTS assay was conducted by adding 20 μl MTS solution to each well and incubating (37° C., 5% CO2) for 2 hrs. The absorbance of each well at 490 nm was determined using a Biotek plate reader.

The subject of a further assay is advanced pancreas cancer. To be noted: single agent, patients with advanced pancreas cancer; cited from earlier work.

Values after ≈ are worked out from the molar mass of the structure shown. Like-named read-outs stand apart in the source and are kept apart here.

On to `CC[C@@]1(O)C(=O)OCc2c1cc1n(c2=O)Cc2cc3c(CN(C)C)c(O)ccc3nc2-1` [Topotecan, topotecan], for which, in assay [1], the “Relative potency in reducing PSN1 cell viability” value is “more potent than irinotecan”. For the same molecule, the results for the “Concentration at which a reduction in cell viability began” value in assay [1] (24 hrs exposure) and in assay [1] (48 hours) were 1 µg/mL and 0.1 µg/mL, respectively. Moreover, the “Concentration at which an effect on cell viability began” value in assay [1] (72 hours) stood at 1e-07 µg/mL. In assay [1] (72 hours), the “Concentration needed for a reduction in cell viability below 80%” value was 0.01 µg/mL. Also, the IC50 – broadly, the concentration needed to halve the response being measured – in assay [1] (Homo sapiens, 24 hrs exposure) was 600 µg/mL (≈ 1420 µM); in assay [1] (Homo sapiens, 48 hrs exposure), 0.6 µg/mL (≈ 1.42 µM); in assay [1] (Homo sapiens, 72 hrs exposure), 0.1 µg/mL (≈ 0.237 µM). For the same molecule, the viability (usually a per cent measure of how many cells are alive, often set against a control) at 0.1 µg/mL in assay [1] (Homo sapiens, 48 hours, 0.1 μg/ml) was ~80%.
For `O=c1[nH]cc(F)c(=O)[nH]1` [5-fluorouracil], the Median survival in the assay on advanced pancreas cancer was 4.4 months.
For `CCc1c2c(nc3ccc(OC(=O)N4CCC(N5CCCCC5)CC4)cc13)-c1cc3c(c(=O)n1C2)COC(=O)[C@]3(O)CC` [Irinotecan, irinotecan], the “Concentration at which a reduction in cell viability began” value in assay [1] (24 hrs exposure) amounted to 100 µg/mL; in assay [1] (48 hours), 10 µg/mL. For the same molecule, in assay [1] (72 hours), the “Concentration at which an effect on cell viability began” value is listed as “around 50 μg/ml”. Besides, the “Effect on cell viability at lower concentration” value in assay [1] (<1 μg/ml, even after 72 hours) was “no detrimental effect in cell viability”. In addition, the 50% inhibitory concentration (IC50) in assay [1] (Homo sapiens, 24 hrs exposure) was 100 µg/mL (≈ 170 µM); in assay [1] (Homo sapiens, 48 hrs exposure) it was 35 µg/mL (≈ 59.7 µM); in assay [1] (Homo sapiens, 72 hrs exposure) it was 30 µg/mL (≈ 51.1 µM).
`Nc1ccn([C@@H]2O[C@H](CO)[C@@H](O)C2(F)F)c(=O)n1` [gemcitabine]: the Median survival with advanced pancreas cancer is on record as 5.7 months.

The values are drawn from US20110293672A1, “PANCREATIC TUMOUR TREATMENT” (BIOCOMPATIBLES UK LIMITED, priority 2008, published 2011).
